# Assay results as given in patent publication US10626112B2, “Heterocyclic sulfonamide derivative and medicine comprising same” (EA PHARMA CO., LTD., priority 2014, dated 2020).
# Molecular target: human TRPA1 (Homo sapiens (Human), UniProt O75762)
# Assay: Measurement of TRPA1 antagonist activity (1): intracellular calcium increase
# Assay type: cell-based
# Details: 293T cells transfected with human TRPA1 expression plasmid; allylisothiocyanate 20 μM stimulation; intracellular calcium fluorescence; read-out: hTRPA1 IC50
# Excerpt: Measurement of TRPA1 Antagonist Activity (1)
# Human TRPA1 Expression Plasmid
# As cDNA encoding human TRPA1 (GenBank accession No. […]), a commercially available product was purchased (manufactured by Kazusa DNA Research Institute, clone No.: pFN21AB7348, item No.: FHC07217). Using this as a template, full-length human TRPA1 gene was amplified using the primer sequences shown below, by reaction using DNA polymerase (manufactured by Stratagene, trade name: PfuUltra High-Fidelity DNA Polymerase).
# A recognition site (underlined) of restriction enzyme HindIII was added to the 5′ side, and XbaI site (underlined) was added to the 3′ side, and GTT of the template sequence was changed to termination codon TAG (bold). The obtained double stranded DNA was enzyme-digested with HindIII and XbaI, and introduced into the multicloning site of expression plasmid pcDNA3.1/zeo(+) (manufactured by Invitrogen) to construct a human TRPA1 expression plasmid.
# Human embryonic kidney-derived 293T cells were cultured in Dulbecco's Modified Eagle Medium containing 10% fetal bovine serum, 10 unit penicillin, and 10 μg streptomycin, plated on a petri dish having a diameter of 10 cm at 3×10^6 cells, and cultured for 24 hr in a CO2 incubator. A reduced serum medium (manufactured by Invitrogen, trade name: OPTI-MEM, 600 μL), a gene transfer reagent (manufactured by Mirus Bio, trade name: Mirus TransIT-293, 18 μL), and human TRPA1 expression plasmid (6 μg) were mixed, the total amount of the mixture was added to the cells on the petri dish to allow for gene transfer. The cells were recovered about for 8 hr later, plated on a poly-D-lysine coated 384 well black/clear bottom plate at 12,000 cells/well, and cultured overnight.
# Measurement of Intracellular Calcium Increase
# The 384 well plate was recovered, and the medium was removed. A calcium-bonded fluorescent indicator (manufactured by Molecular Device, trade name: Calcium4 Assay Kit, 38 μL) dissolved in assay buffer (1×HBSS, 20 mM HEPES, pH 7.2) was added, and the cells were stained in a CO2 incubator for 1 hr. The cells were taken out at room temperature, stood for not less than 15 min, a test substance (10 μL) was added by a platereader FDSS7000 (Hamamatsu Photonics K.K.) equipped with a 384ch dispenser. After 10 min, allylisothiocyanate (12 μL) was further added at a final concentration of 20 μM, and changes in the relative fluorescence intensity after addition of allylisothiocyanate were measured for 5 min.
# Test Substance Preparation
# The test substance was dissolved in dimethyl sulfoxide and serially diluted with an assay buffer containing 0.1% bovine serum albumin (1×HBSS, 20 mM HEPES, pH 7.2) to a 4.8-fold concentration of the evaluation concentration. Allylisothiocyanate, which is a known TRPA1 activator, was dissolved in dimethyl sulfoxide to 100 mM, and further diluted 5-fold (100 μM) of the final concentration, like the test substance.
# Calculation of Antagonist Activity
# Under the test substance-free conditions, the maximum variation range of the fluorescence intensity before and after allylisothiocyanate stimulation was defined to be 100% activity rate, and the variation range before and after buffer stimulation was defined as 0% activity rate. The activity rate on addition of the test substance was determined, and the numerical value obtained by subtracting the activity rate from 100 was defined to be an inhibitory rate. IC50, which is the concentration of the test substance necessary for reaching the 50% inhibitory rate, was calculated from the sigmoid approximate curve by a spreadsheet software Excel-Fit.
# Chain of human TRPA1 (O75762 whole entry): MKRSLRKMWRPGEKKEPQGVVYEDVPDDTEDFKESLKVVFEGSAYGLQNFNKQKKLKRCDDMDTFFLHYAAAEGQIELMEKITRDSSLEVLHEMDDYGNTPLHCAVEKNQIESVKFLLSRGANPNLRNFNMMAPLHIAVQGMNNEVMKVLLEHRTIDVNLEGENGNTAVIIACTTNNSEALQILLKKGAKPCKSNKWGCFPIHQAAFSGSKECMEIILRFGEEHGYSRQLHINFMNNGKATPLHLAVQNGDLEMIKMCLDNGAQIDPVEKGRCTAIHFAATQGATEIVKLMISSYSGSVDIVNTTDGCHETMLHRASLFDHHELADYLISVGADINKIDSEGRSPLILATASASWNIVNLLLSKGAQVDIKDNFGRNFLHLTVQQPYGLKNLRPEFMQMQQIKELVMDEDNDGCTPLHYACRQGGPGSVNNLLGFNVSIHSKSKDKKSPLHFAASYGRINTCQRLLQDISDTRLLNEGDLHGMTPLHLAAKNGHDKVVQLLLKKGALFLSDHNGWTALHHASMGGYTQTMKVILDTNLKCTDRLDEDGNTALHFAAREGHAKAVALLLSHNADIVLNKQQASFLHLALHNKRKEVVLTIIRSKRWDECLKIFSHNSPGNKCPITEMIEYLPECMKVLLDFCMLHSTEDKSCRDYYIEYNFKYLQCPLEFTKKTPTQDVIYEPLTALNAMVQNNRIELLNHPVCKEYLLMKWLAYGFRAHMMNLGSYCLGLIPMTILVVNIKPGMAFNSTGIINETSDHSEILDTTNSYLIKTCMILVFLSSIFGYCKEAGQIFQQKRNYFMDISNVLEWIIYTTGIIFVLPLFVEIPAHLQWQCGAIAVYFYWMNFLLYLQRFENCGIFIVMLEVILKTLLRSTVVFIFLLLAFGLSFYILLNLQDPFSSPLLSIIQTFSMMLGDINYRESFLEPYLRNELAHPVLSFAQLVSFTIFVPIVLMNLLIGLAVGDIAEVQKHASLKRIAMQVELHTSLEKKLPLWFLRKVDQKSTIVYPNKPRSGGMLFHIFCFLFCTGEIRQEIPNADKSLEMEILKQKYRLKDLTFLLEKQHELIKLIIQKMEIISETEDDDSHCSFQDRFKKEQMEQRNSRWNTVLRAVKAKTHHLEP
row,Structure (SMILES),IC50
1,"O=C(NCc1cccc(OCc2cccc(CN3CCOCC3)c2)c1)[C@@H]1CCCN1S(=O)(=O)c1cc2cc(F)ccc2o1 [Example 27, (2S)-1-(5-fluorobenzofuran-2-yl)sulfonyl-N-[[3-[[3-(morpholinomethyl)phenyl]-methoxy]phenyl]methyl]-pyrrolidine-2-carboxamide]",8.2 nM
2,"O=C(NCc1cccc(OCc2cccc(OCCN3CCOCC3)c2)c1)[C@@H]1CCCN1S(=O)(=O)c1cc2cc(F)ccc2o1 [Example 28, (2S)-1-(5-fluorobenzofuran-2-yl)sulfonyl-N-[[3-[[3-(2-morpholinoethoxy)phenyl]-methoxy]phenyl]methyl]-pyrrolidine-2-carboxamide]",56 nM
3,"COC(=O)C(Oc1cccc(CNC(=O)[C@@H]2CCCN2S(=O)(=O)c2cc3cc(F)ccc3o2)c1)c1ccccc1 (stereo partly drawn) [Example 29, methyl 2-[3-[[[(2S)-1-(5-fluorobenzofuran-2-yl)sulfonylpyrrolinidine-2-carbonyl]amino]methyl]-phenoxy]-2-phenylacetate]",340 nM
4,"O=C(NCc1cccc(OCC2CCOCC2)c1)[C@@H]1CCCN1S(=O)(=O)c1cc2cc(F)ccc2o1 [Example 30, (2S)-1-(5-fluorobenzofuran-2-yl)sulfonyl-N-[[3-(tetrahydropyran-4-ylmethoxy)phenyl]-methyl]pyrrolidine-2-carboxamide]",8.3 nM
5,"O=C(NCc1cccc(OCC2CCCOC2)c1)[C@@H]1CCCN1S(=O)(=O)c1cc2cc(F)ccc2o1 (stereo partly drawn) [Example 31, (2S)-1-(5-fluorobenzofuran-2-yl)sulfonyl-N-[[3-(tetrahydropyran-3-ylmethoxy)phenyl]-methyl]pyrrolidine-2-carboxamide]",4.3 nM
6,"O=C(NCc1cccc(OCC2CCOC2)c1)[C@@H]1CCCN1S(=O)(=O)c1cc2cc(F)ccc2o1 (stereo partly drawn) [Example 32, (2S)-1-(5-fluorobenzofuran-2-yl)sulfonyl-N-[[3-(tetrahydrofuran-3-ylmethoxy)phenyl]-methyl]pyrrolidine-2-carboxamide]",31 nM
7,"O=C(NCc1cccc(OC2CCOCC2)c1)[C@@H]1CCCN1S(=O)(=O)c1cc2cc(F)ccc2o1 [Example 33, (2S)-1-(5-fluorobenzofuran-2-yl)sulfonyl-N-[(3-tetrahydropyran-4-yloxyphenyl)methyl]-pyrrolidine-2-carboxamide]",160 nM
8,"O=C(NCc1cc(F)cc(OCc2ccccc2)c1)[C@@H]1CCCN1S(=O)(=O)c1cc2cc(F)ccc2o1 [Example 34, (2S)-N-[(3-benzyloxy-5-fluoro-phenyl)methyl]-1-(5-fluorobenzofuran-2-yl)sulfonyl-pyrrolidine-2-carboxamide]",1.6 nM
9,"O=C(NCc1cc(F)cc(OCc2ccncc2)c1)[C@@H]1CCCN1S(=O)(=O)c1cc2cc(F)ccc2o1 [Example 35, (2S)-1-(5-fluorobenzofuran-2-yl)sulfonyl-N-[[3-fluoro-5-(4-pyridylmethoxy)-phenyl]methyl]-pyrrolidine-2-carboxamide]",8 nM
10,"N#Cc1ccc(COc2cc(F)cc(CNC(=O)[C@@H]3CCCN3S(=O)(=O)c3cc4cc(F)ccc4o3)c2)cc1 [Example 36, (2S)-N-[[3-[(4-cyanophenyl)methoxy]-5-fluoro-phenyl]methyl]-1-(5-fluorobenzofuran-2-yl)sulfonyl-pyrrolidine-2-carboxamide]",1.5 nM
11,"O=C(NCc1cccc(OCc2ccccc2)c1)[C@@H]1CCCN1S(=O)(=O)c1cc2cc(F)ccc2o1 [Example 43, (2S)-N-[(3-benzyloxyphenyl)methyl]-1-(5-fluorobenzofuran-2-yl)sulfonyl-pyrrolidine-2-carboxamide]",1.6 nM
12,"O=C(NCc1ccc(Oc2cccc(C(F)(F)F)c2)cc1)[C@@H]1CCCN1S(=O)(=O)c1cc2cc(F)ccc2o1 [Example 51, (2S)-1-(5-fluorobenzofuran-2-yl)sulfonyl-N-[[4-[3-(trifluoromethyl)phenoxy]phenyl]-methyl]pyrrolidine-2-carboxamide]",19 nM

# Second part, the molecule after the results:
row,IC50,Structure (SMILES)
1,14 nM,"O=C(NCc1cccc(OCc2ccccc2)c1)[C@@H]1CCCN1S(=O)(=O)c1cc2ccccc2o1 [Example 37, (2S)-1-(benzofuran-2-ylsulfonyl)-N-[(3-benzyloxyphenyl)methyl]pyrrolidine-2-carboxamide]"
2,9.1 nM,"O=C(NCc1cccc(OCc2ccc(C(F)(F)F)cc2)c1)[C@@H]1CCCN1S(=O)(=O)c1cc2ccccc2o1 [Example 38, (2S)-1-(benzofuran-2-ylsulfonyl)-N-[[3-[[4-(trifluoromethyl)phenyl]methoxy]-phenyl]methyl]pyrrolidine-2-carboxamide]"
3,190 nM,"O=C(NCc1cccc(OCc2ccc(C(F)(F)F)cc2)c1)[C@@H]1CCCN1S(=O)(=O)c1cc2cccc(F)c2o1 [Example 39, (2S)-1-(7-fluorobenzofuran-2-yl)sulfonyl-N-[[3-[[4-(trifluoromethyl)phenyl]methoxy]-phenyl]methyl]pyrrolidine-2-carboxamide]"
4,96 nM,"O=C(NCc1cccc(OCc2ccc(C(F)(F)F)cc2)c1)[C@@H]1CCCN1S(=O)(=O)c1cc2ccc(F)cc2o1 [Example 40, (2S)-1-(6-fluorobenzofuran-2-yl)sulfonyl-N-[[3-[[4-(trifluoromethyl)phenyl]methoxy]-phenyl]methyl]pyrrolidine-2-carboxamide]"
5,7.1 nM,"O=C(NCc1cccc(OCc2ccc(C(F)(F)F)cc2)c1)[C@@H]1CCCN1S(=O)(=O)c1cc2c(F)cccc2o1 [Example 42, (2S)-1-(4-fluorobenzofuran-2-yl)sulfonyl-N-[[3-[[4-(trifluoromethyl)phenyl]methoxy]-phenyl]methyl]pyrrolidine-2-carboxamide]"
6,1.7 nM,"O=C(NCc1cccc(OCc2ccc(C(F)(F)F)cc2)c1)[C@@H]1C=CCN1S(=O)(=O)c1cc2ccccc2o1 [Example 44, (2S)-1-(benzofuran-2-ylsulfonyl)-N-[[3-[[4-(trifluoromethyl)phenyl]methoxy]-phenyl]methyl]-2,5-dihydropyrrole-2-carboxamide]"
7,35 nM,"O=C(NCc1cccc(OCc2ccc(C(F)(F)F)cc2)c1)[C@@H]1[C@@H](O)CCN1S(=O)(=O)c1cc2ccccc2o1 [Example 45, (2S,3S)-1-(benzofuran-2-ylsulfonyl)-3-hydroxy-N-[[3-[[4-(trifluoromethyl)phenyl]methoxy]-phenyl]methyl]pyrrolidine-2-carboxamide]"
8,130 nM,"O=C(NCc1cccc(OCc2ccc(C(F)(F)F)cc2)c1)[C@@H]1C[C@@H](O)CN1S(=O)(=O)c1cc2ccccc2o1 [Example 46, (2S,4R)-1-(benzofuran-2-ylsulfonyl)-4-hydroxy-N-[[3-[[4-(trifluoromethyl)phenyl]methoxy]-phenyl]methyl]pyrrolidine-2-carboxamide]"
9,24 nM,"O=C(NCc1cccc(OCc2ccc(C(F)(F)F)cc2)c1)[C@@H]1CC(F)(F)CN1S(=O)(=O)c1cc2ccccc2o1 [Example 47, (2S)-1-(benzofuran-2-ylsulfonyl)-4,4-difluoro-N-[[3-[[4-(trifluoromethyl)phenyl]methoxy]-phenyl]methyl]pyrrolidine-2-carboxamide]"
10,6.9 nM,"O=C(NCc1cccc(OCc2ccc(C(F)(F)F)cc2)c1)[C@@H]1CCN1S(=O)(=O)c1cc2ccccc2o1 [Example 48, (2S)-1-(benzofuran-2-ylsulfonyl)-N-[[3-[[4-(trifluoromethyl)phenyl]methoxy]-phenyl]methyl]azetidine-2-carboxamide]"
11,18 nM,"C[C@H](NS(=O)(=O)c1cc2cc(F)ccc2o1)C(=O)NCc1cccc(OCc2ccc(C(F)(F)F)cc2)c1 [Example 49, (2S)-2-[(5-fluorobenzofuran-2-yl)sulfonylamino]-N-[[3-[[4-(trifluoromethyl)phenyl]methoxy]-phenyl]methyl]propanamide]"
12,160 nM,"O=C(NCc1ccc(Oc2cccc(C(F)(F)F)c2)cc1)[C@@H]1CCCN1S(=O)(=O)c1cc2ccccc2o1 [Example 50, (2S)-1-(benzofuran-2-ylsulfonyl)-N-[[4-[3-(trifluoromethyl)phenoxy]phenyl]-methyl]pyrrolidine-2-carboxamide]"
